Results as given in ChEMBL document CHEMBL4725482, “In Silico-Guided Identification of New Potent Inhibitors of Carbonic Anhydrases Expressed in Vibrio cholerae” (ACS Med Chem Lett, 2020).

Assays:
Carbonic anhydrase 1 = Carbonic anhydrase 1 (Homo sapiens, UniProt P00915)
Carbonic anhydrase 2 = Carbonic anhydrase 2 (Homo sapiens, UniProt P00918)

Sequence of Carbonic anhydrase 1 (P00915 whole entry): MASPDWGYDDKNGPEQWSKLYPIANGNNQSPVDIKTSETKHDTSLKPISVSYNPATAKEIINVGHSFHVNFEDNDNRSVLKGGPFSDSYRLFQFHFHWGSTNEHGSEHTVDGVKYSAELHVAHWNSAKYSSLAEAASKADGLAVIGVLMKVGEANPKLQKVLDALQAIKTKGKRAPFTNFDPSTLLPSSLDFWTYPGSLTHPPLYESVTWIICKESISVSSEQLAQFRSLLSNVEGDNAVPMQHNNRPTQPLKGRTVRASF

Row | SMILES | Ki (Carbonic anhydrase 1) [nM] | Ki (Carbonic anhydrase 2) [nM]
1 | NS(=O)(=O)c1ccc(CNC(=O)Cc2ccccc2F)cc1 | 269 | 26.3
2 | NS(=O)(=O)c1ccc(CNC(=O)c2ccc(Br)cc2)cc1 | 95 | 63
3 | NS(=O)(=O)c1ccc(CNC(=O)c2ccccc2Cc2ccccc2)cc1 | 98.3 | 54.4
4 | Cc1cccc(C(=O)NCc2ccc(S(N)(=O)=O)cc2)c1 | 60.7 | 3.3
5 | NS(=O)(=O)c1ccc(CNC(=O)c2cccc(Cl)c2)cc1 | 65.9 | 5.1
6 | NS(=O)(=O)c1ccc(CNC(=O)c2cc(Cl)ccc2Cl)cc1 | 77.8 | 31.6

Continued by falling Ki (Carbonic anhydrase 1), values first:

Row | Ki (Carbonic anhydrase 1) [nM] | Ki (Carbonic anhydrase 2) [nM] | SMILES
7 | 2110 | 920 | NS(=O)(=O)c1ccc(CNC(=O)c2ccc(-c3ccccc3)cc2)cc1
8 | 572 | 69.5 | CSCCC(=O)NCc1ccc(S(N)(=O)=O)cc1
9 | 44.2 | 83.8 | NS(=O)(=O)c1ccc(CNC(=O)c2ccsc2)cc1
